Measurements taken from US3941842A, “P,P'-Disubstituted α-trichloromethylbenzylanilines” (priority 1972, dated 1976).

Assays:
[1] = Model ecosystem: distribution, ecological magnification and Biodegradability Index; settings: 33 days, 5.0 mg 3H-ethoxyaniline to Sorghum
Description: After the amounts of the various metabolites have been calculated and a determination is made as to which of the metabolites are to be designated as "polar" and which are to be designated as "non-polar", a Biodegradability Index (amount of polar metabolites/amount of nonpolar metabolites) may be calculated. Remembering that nonpolar compounds, such as DDT are readily soluble in the fatty tissues, but are not readily soluble in water based solutions, and that the cell fluid is essentially a water based solution, the lower the Biodegradability Index, the lower the amount of biodegradability of the compound. The higher the amount of polarity, the greater the likelihood that the polar compound will dissolve in water, a very polar compound, and be eliminated from the cell.
The environmental fate of any new pesticide is a factor of paramount importance in determining how and where it might be used. The behavior of ^3 H-α-trichloromethyl-p-ethoxybenzyl-p-ethoxyaniline has been studied by the model ecosystem technique following application of 5.0 mg. of labeled compound to Sorghum plants. A summary of
metabolites from the organisms in the model ecosystem after 33 days were
identified by cochromatography with standards of known constitution, by
appropriate chromogenic reagents, and by high-resolution mass
spectrometry. The data of Table IV indicate the O-dealkylation of
Food Chem. 1 (1972). Ethoxychlor was found in the snail to 58.6 ppm and in the fish to 0.92 ppm, along with its ethylene and the mono- and bis-phenols formed by O-dealkylation. The ecological magnification (E.M.) of ethoxychlor, defined as the ratio of the parent material in the fish to the concentration in the water, was 1500-fold as compared with an E.M. of only 0.7-fold for the ethoxyaniline.
Comparing the Biodegradability Indices (B.I.=total recovered polar metabolites/total recovered nonpolar metabolites) the values are 0.44 for ethoxychlor and 2.0 for ethoxyaniline.

[2] = test system: Culex fatigans larvae; experiment: LC50 to Culex fatigans larvae; type: in vivo, Culex pipiens quinquefasciatus Say
Description: (§1) World Health Org. 363 (1971). […] Food Chem. 1145 (1970). […] Sci. Tech. 709 (1971). The results are detailed in Table II. ##SPC1##

[3] = test system: Anopheles albimanus larvae; experiment: LC50 to Anopheles albimanus larvae; type: in vivo, Anopheles albimanus Weid
Description: as §1

[4] = test system: Phormia regina; experiment: whole plant or invertebrate; settings: for LD50: Phormia regina, read-out: Topical LD50, Phormia regina, Alone; for LD50 / Topical LD50, Phormia regina, with pb: topical; for SR, Phormia regina: synergistic ratio: LD50 alone/LD50 synergized with piperonyl butoxide; for Topical LD50, Phormia regina, with pb: synergized with piperonyl butoxide
Experimental: The compounds of the present invention were tested for insecticidal activity by standard methods, and compared with the insecticidal activities of DDT and symmetrical analogs of DDT, such methoxychlor. Toxicological methods for the determination of the topical LD50 values to adult female SNAIDM and RSP houseflies, Musca domestica L. and to Phormia regina, and LC50 values to Culex pipiens quinquefasciatus Say, and Anopheles albimanus Weid mosquitoes were described by Metcalf el al., 44 Bull. World Health Org. […] The methods for evaluation of metabolism by mouse liver homogenate and by female RSP housefly and salt-marsh caterpillar larvae Estigmene acrea Drury, were described by Kapoor et al., 18 J. Agr. […] The techniques for model eocsystem evluation were described by Metcalf et al., 5 J. Environ. Sci. Tech.
(§2) Since piperonyl butoxide serves to block the action of MFO, the synergized LD50 values express the intrinsic toxicity of the compounds. With the detoxifying action of MFO enzymes blocked, the intrinsic toxicity of the compounds can thus be measured.

[5] = test system: Musca domestica Rsp; experiment: Topical LD50 to adult female RSP houseflies; settings: for LD50: Musca domestica, read-out: Topical LD50, Musca domestica Rsp, Alone; for LD50 / Topical LD50, Musca domestica Rsp, with pb: topical; for Topical LD50, Musca domestica Rsp, with pb: RSP strain, synergized with piperonyl butoxide; for SR, Musca domestica Rsp: synergistic ratio: LD50 alone/LD50 synergized with piperonyl butoxide
Experimental: (§3) The compounds of the present invention were tested for insecticidal activity by standard methods, and compared with the insecticidal activities of DDT and symmetrical analogs of DDT, such methoxychlor. Toxicological methods for the determination of the topical LD50 values to adult female SNAIDM and RSP houseflies, Musca domestica L. and to Phormia regina, and LC50 values to Culex pipiens quinquefasciatus Say, and Anopheles albimanus Weid mosquitoes were described by Metcalf el al., 44 Bull. World Health Org. 363 (1971). The methods for evaluation of metabolism by mouse liver homogenate and by female RSP housefly and salt-marsh caterpillar larvae Estigmene acrea Drury, were described by Kapoor et al., 18 J. Agr. Food Chem. 1145 (1970). The techniques for model eocsystem evluation were described by Metcalf et al., 5 J. Environ. Sci. Tech. 709 (1971).
as §2

[6] = test system: Musca domestica Snaidm; experiment: Topical LD50 to adult female SNAIDM houseflies; settings: for LD50: Musca domestica, read-out: Topical LD50, Musca domestica Snaidm, Alone; for LD50 / Topical LD50, Musca domestica Snaidm, with pb: topical; for Topical LD50, Musca domestica Snaidm, with pb: SNAIDM strain, synergized with piperonyl butoxide; for SR, Musca domestica Snaidm: synergistic ratio: LD50 alone/LD50 synergized with piperonyl butoxide
Experimental: as §3, §2

CCOc1ccc(C(=O)O)cc1 [C2 H5 OC6 H4 C(O)OH, p-ethoxybenzoic acid]
Concentration of ethoxyaniline equivalents in Culex (mosquito) [1]: 0.06 ppm | Concentration of ethoxyaniline equivalents in Gambusia (fish) [1]: 0.03 ppm | Concentration of ethoxyaniline equivalents in H2O [1]: 0.123 ppm | Concentration of ethoxyaniline equivalents in Oedogonium (algae) [1]: 0.38 ppm | Concentration of ethoxyaniline equivalents in Physa (snail) [1]: 1.800 ppm

COc1ccc(C(Nc2ccc(Cl)cc2)C(Cl)(Cl)Cl)cc1 (centres unmarked) [V]
LC50 Culex fatigans larvae [2]: 0.068 ppm | LC50 Anopheles albimanus larvae [3]: 0.12 ppm | LD50 [4]: 55 mg/kg | SR, Phormia regina [4]: 3.6 | Topical LD50, Phormia regina, with pb [4]: 15.2 μg per g | LD50 [5]: 35.5 mg/kg | Topical LD50, Musca domestica Rsp, with pb [5]: 12.0 μg per g | SR, Musca domestica Rsp [5]: 3.0 | LD50 [6]: 23 mg/kg | Topical LD50, Musca domestica Snaidm, with pb [6]: 10.5 μg per g | SR, Musca domestica Snaidm [6]: 2.2

CCOc1ccc(NC(c2ccc3c(c2)OCO3)C(Cl)(Cl)Cl)cc1 (centres unmarked) [Compound XVII]
LC50 Culex fatigans larvae [2]: 0.23 ppm | LC50 Anopheles albimanus larvae [3]: 0.25 ppm | LD50 [4]: > 250 mg/kg | SR, Phormia regina [4]: > 7.7 | Topical LD50, Phormia regina, with pb [4]: 32.5 μg per g | LD50 [5]: 35.5 mg/kg | Topical LD50, Musca domestica Rsp, with pb [5]: 11.0 μg per g | SR, Musca domestica Rsp [5]: 3.2 | LD50 [6]: 19.5 mg/kg | Topical LD50, Musca domestica Snaidm, with pb [6]: 3.8 μg per g | SR, Musca domestica Snaidm [6]: 5.1

COc1ccc(C(Nc2ccc(C)cc2)C(Cl)(Cl)Cl)cc1 (centres unmarked) [IX]
LC50 Culex fatigans larvae [2]: 0.26 ppm | LC50 Anopheles albimanus larvae [3]: 0.28 ppm | LD50 [4]: 16.5 mg/kg | SR, Phormia regina [4]: 1.4 | Topical LD50, Phormia regina, with pb [4]: 11.50 μg per g | LD50 [5]: 50 mg/kg | Topical LD50, Musca domestica Rsp, with pb [5]: 12.0 μg per g | SR, Musca domestica Rsp [5]: 4.5 | LD50 [6]: 35 mg/kg | Topical LD50, Musca domestica Snaidm, with pb [6]: 8.5 μg per g | SR, Musca domestica Snaidm [6]: 4.1

CCOc1ccc(NC(c2ccc(O)cc2)C(Cl)(Cl)Cl)cc1 (stereo not drawn) [C2 H5 OC6 H4 NHCH(CCl3)C6 H4 OH, α-trichloromethyl-p-hydroxybenzyl-p-ethoxyaniline]
Concentration of ethoxyaniline equivalents in Culex (mosquito) [1]: 0.13 ppm | Concentration of ethoxyaniline equivalents in Gambusia (fish) [1]: 0.08 ppm | Concentration of ethoxyaniline equivalents in H2O [1]: 0.031 ppm | Concentration of ethoxyaniline equivalents in Oedogonium (algae) [1]: 0.43 ppm | Concentration of ethoxyaniline equivalents in Physa (snail) [1]: 2.02 ppm

CCOc1ccc(NC(c2ccc(C)cc2)C(Cl)(Cl)Cl)cc1 (centres unmarked) [XII]
LC50 Culex fatigans larvae [2]: 0.33 ppm | LC50 Anopheles albimanus larvae [3]: 0.30 ppm | LD50 [4]: 95 mg/kg | SR, Phormia regina [4]: 2.2 | Topical LD50, Phormia regina, with pb [4]: 42.5 μg per g | LD50 [5]: 70 mg/kg | Topical LD50, Musca domestica Rsp, with pb [5]: 19.5 μg per g | SR, Musca domestica Rsp [5]: 3.6 | LD50 [6]: 35 mg/kg | Topical LD50, Musca domestica Snaidm, with pb [6]: 14.5 μg per g | SR, Musca domestica Snaidm [6]: 2.4

Cc1ccc(C(Nc2ccc(Cl)cc2)C(Cl)(Cl)Cl)cc1 (centres unmarked) [Compound XV]
LC50 Culex fatigans larvae [2]: 0.066 ppm | LC50 Anopheles albimanus larvae [3]: 0.13 ppm | LD50 [4]: 72.5 mg/kg | SR, Phormia regina [4]: 1.1 | Topical LD50, Phormia regina, with pb [4]: 62.5 μg per g | LD50 [5]: ~500 mg/kg | Topical LD50, Musca domestica Rsp, with pb [5]: 36.0 μg per g | SR, Musca domestica Rsp [5]: 14 | LD50 [6]: 90 mg/kg | Topical LD50, Musca domestica Snaidm, with pb [6]: 21.0 μg per g | SR, Musca domestica Snaidm [6]: 4.3
